Reference: patent US20040150788A1, “Antimicrobial lenses, processes to prepare them and methods of their use” (priority 2002, published 2004)

Assays:
[1] = cited from earlier work; for Ksp: silver salt, pure water at 25° C. (Table 1); for Ksp In pure H2O at 25° C. / Ksp in pure H2O at 25° C.: CRC Handbook of Chemistry and Physics; for Ksp In pure H2O at 25° C.: 74th edition (Table 4); for Ksp in pure H2O at 25° C.: 74th edition (Table 8)
[2] = Solubility-product constant (Ksp) and molar solubility of metal salts in pure water at 25° C.; settings: derived from Ksp (Table 1)

With `[Cl][Ag]` [AgCl, silver chloride] as the compound, how does the Ksp [1] read?
The Ksp was 1.77 × 10^−10.

Which results are given for `[Ag][I]` [Agl, silver iodide]?
Ksp [1]: 8.51 × 10^−17; Molar solubility, silver [2]: 9.22 nM

With `[Br][Ag]` [Silver bromide] as the compound, how does the “Ksp In pure H2O at 25° C.” value [1] read?
Its value is 5.35 × 10^−13.

For `O=S(=O)([O-])[O-].[Ag+].[Ag+]` [Silver sulfate], which “Ksp In pure H2O at 25° C.” value [1] is on record?
Its value is 1.20 × 10^−5.

And the Ksp [1]?
The Ksp was 1.20 × 10^−5.

With `[O]=[Zn]` [Zinc oxide] as the compound, how does the “Ksp in pure H2O at 25° C.” value [1] read?
The value was 3.87 × 10^−10.

For Copper sulfide, which “Ksp in pure H2O at 25° C.” value [1] is on record?
Its value is 6.00 × 10^−37.
